Results on one molecule are retold here after patent US12642805B2, “Use of oxygenated cholesterol sulfates for treating at least one of insulin resistance, diabetes, and prediabetes” (Medicis Pharmaceutical Corporation, priority 2020, dated 2026).

For this assay, the system named is Huh-7 cells. Nature of the assay: whole genome bisulfite sequencing (WGBS), 5mCpG demethylation in promoter regions. It counts as cell-based, human. How it is done: Each sample, 2 μg, was sent to EpigenDx, Inc. (Hopkinton, MA) for analysis of global methylation bisulfite sequencing. The same samples, 6 μg, were sent to Novogene Co., Ltd (Tianjin, China) for analysis of whole genome bisulfite sequencing (WGBS). Total RNA was isolated using the Promega SV total RNA isolation system (Madison, WI) with DNase treatment. Each sample, 2 μg, was used for the first-strand cDNA synthesis as recommended by the manufacturer (Invitrogen, Carlsbad, CA). Real-time RT-PCR was performed using SYBR Green as the indicator on ABI 7500 Fast Real-Time PCR System (Applied Biosystems, Foster City, CA). Amplifications of β-actin or GAPDH were used as internal controls. Relative messenger RNA (mRNA) expression was quantified with the comparative cycle threshold (Ct) method using the primer set shown in Table 1.1 and was expressed as 2^−ΔΔCt.
Each sample, […] of genomic DNA spiked with 26 ng lambda DNA, was fragmented by sonication to 200-300 bp with Covaris S220, followed by end repair and adenylation. Cytosine-methylated barcodes were ligated to sonicated DNA per the manufacturer's instructions. These DNA fragments were treated twice with bisulfite using EZ DNA Methylation-Gold™ Kit (Zymo Research) before the resulting single-strand DNA fragments were PCR amplified using KAPA HiFi Hot Start Uracil and Ready Mix (2×). Library concentration was quantified by Qubit® 2.0 Flurometer (Life Technologies, CA, USA) and quantitative PCR, and the insert size was assayed on an Agilent Bioanalyzer 2100 system.
The library preparations were sequenced on an Illumina Hiseq 2500/4000 or Novaseq platform and 125 bp/150 bp paired-end reads were generated. Image analysis and base calling were performed with Illumina CASAVA pipeline. Trimmomatic (Trimmomatic-0.36) software was used for quality control. Bismark software (version 0.16.3; Krueger F, 2011) was used to perform alignments of bisulfite-treated reads to a reference genome (−X 700-dovetail). DSS software (23) was used to identify differentially methylated regions (DMRs). KOBAS software was used to test the statistical enrichment of DMR related genes in the Kyoto Encyclopedia of Genes and Genomes (KEGG) pathways.
Each sample (6 μg) was used for analysis of the whole genome bisulfite sequencing (WGBS).

For the molecule `C[C@H](CCCC(C)(C)O)[C@H]1CC[C@H]2[C@@H]3CC=C4C[C@@H](OS(=O)(=O)O)CC[C@]4(C)[C@H]3CC[C@]12C` [25HC3S, 25-hydroxycholesterol-3-sulfate], under “HG 72 h, then 25HC3S 4 h”, the “genes demethylated in promoter regions, Calcium signaling pathway” value came to 19 genes; the “genes demethylated in promoter regions, MAPK signaling pathway” value is 23 genes; the “genes demethylated in promoter regions, cAMP signaling pathway” value is 28 genes. In addition, under “high glucose model”, the “genes with 5mCpG converted to CpG in promoter regions” value was 1074 genes.
